According to patent publication US12637425B2, “Compounds and formulations for treating ophthalmic diseases” (Visus Therapeutics, Inc., priority 2020, dated 2026):

Target: T1, Recombinant cryAB(R120G) protein (Homo sapiens, UniProt P02511, R120G)
T1 sequence (P02511 1-175 R120G): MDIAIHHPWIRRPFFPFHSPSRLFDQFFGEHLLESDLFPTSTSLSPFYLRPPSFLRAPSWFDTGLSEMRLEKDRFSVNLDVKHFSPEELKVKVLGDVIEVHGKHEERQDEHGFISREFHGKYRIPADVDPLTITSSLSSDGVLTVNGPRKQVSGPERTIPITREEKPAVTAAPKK
Experiment: Kinetic turbidity aggregation assay of recombinant cryAB(R120G)
Assay type: biochemical
Conditions: for inhibition at 25 µM: 25 μM compound, read-out: % Inhibition of Protein Aggregation, 25 μM cmpd; for inhibition at 25 µM / inhibition at 100 µM / inhibition at 400 µM: 15 μM cryAB(R120G), 42° C., absorbance at 550 nm; for inhibition at 100 µM: 100 μM compound, read-out: % Inhibition of Protein Aggregation, 100 μM cmpd; for inhibition at 400 µM: 400 μM compound, read-out: % Inhibition of Protein Aggregation, 400 μM cmpd; for IC50: inhibition of cryAB(R120G) protein aggregation
Description: Example A-1: Kinetic Turbidity Aggregation Assay of Recombinant cryAB(R120)
Recombinant cryAB(R120G) protein was diluted to 100 μM in assay buffer (50 mM Tris, 100 mM NaCl, 5 mM DTT, 0.01% Triton X-100, 0.05% PEG-8000). Compounds were dissolved in DMSO at 10 mM then typically diluted to 2.5 mM in DMSO and serially diluted 2-fold as necessary. To a 384-well black microplate in quadruplicate was added 81 μL assay buffer, followed by 15 μL protein solution, and 4 μL compound to give a final concentration of 15 μM cryAB(R120G) protein in 4% DMSO. […] N.D. is not determined.

SMILES	inhibition at 25 µM [%]	inhibition at 100 µM [%]	inhibition at 400 µM [%]	IC50 [µM]
CN(Cc1cncs1)[C@H](CNS(=O)(=O)c1ccc2cc[nH]c2c1)c1cn(C)c2ccccc12 [Compound 86, (S)-N-(2-(methyl(thiazol-5-ylmethyl)amino)-2-(1-methyl-1H-indol-3-yl)ethyl)-1H-indole-6-sulfonamide]	80	94.1		
Cn1cc(C(CNS(=O)(=O)c2ccc3cc[nH]c3c2)N2CC[C@H](O)C2)c2ccccc21 (stereo partly drawn) [Compound 43, N-(2-((S)-3-hydroxypyrrolidin-1-yl)-2-(1-methyl-1H-indol-3-yl)ethyl)-1H-indole-6-sulfonamide]	20	98.6		
CN(C)C(CNS(=O)(=O)c1ccc2cc[nH]c2c1)c1cccc2ncccc12 (stereo not drawn) [Compound 17, N-(2-(dimethylamino)-2-(quinolin-5-yl)ethyl)-1H-indole-6-sulfonamide]	-10.7	-13	63.5	
CN(C)C(CNS(=O)(=O)c1ccc2ccn(C)c2c1)c1cn(C)c2ccccc12 (stereo not drawn) [Compound 8, N-(2-(dimethylamino)-2-(1-methyl-1H-indol-3-yl)ethyl)-1-methyl-1H-indole-6-sulfonamide]	-37	-29	74.3	
Cn1cc([C@H](CNS(=O)(=O)c2ccc3cc[nH]c3c2)N2CCCC2)c2cccnc21 [Compound 67, (R)-N-(2-(1-methyl-1H-pyrrolo[2,3-b]pyridin-3-yl)-2-(pyrrolidin-1-yl)ethyl)-1H-indole-6-sulfonamide]	34	73.3		
CC(=O)N[C@@H]1CCN(C(CNS(=O)(=O)c2ccc3cc[nH]c3c2)c2cn(C)c3ccccc23)C1 (stereo partly drawn) [Compound 62, N-((3R)-1-(2-(1H-indole-6-sulfonamido)-1-(1-methyl-1H-indol-3-yl)ethyl)pyrrolidin-3-yl)acetamide]	-39	53.1		
CC1CN(C(CNS(=O)(=O)c2ccc3cc[nH]c3c2)c2cn(C)c3ccccc23)C1 (stereo not drawn) [Compound 103, N-(2-(1-methyl-1H-indol-3-yl)-2-(3-methylazetidin-1-yl)ethyl)-1H-indole-6-sulfonamide]	59	99.7		
CCN(C)C(CNS(=O)(=O)c1ccc2cc[nH]c2c1)c1cn(C)c2ccccc12 (stereo not drawn) [Compound 37, N-(2-(ethyl(methyl)amino)-2-(1-methyl-1H-indol-3-yl)ethyl)-1H-indole-6-sulfonamide]	92.8	99.9		≤ 10
CNC(CNS(=O)(=O)c1ccc2cc[nH]c2c1)c1cn(C)c2ccccc12 (stereo not drawn) [Compound 88, N-(2-(1-methyl-1H-indol-3-yl)-2-(methylamino)ethyl)-1H-indole-6-sulfonamide]	21	94.3		
Cc1cccc2c(C(CNS(=O)(=O)c3ccc4cc[nH]c4c3)N(C)C)cn(C)c12 (stereo not drawn) [Compound 73, N-(2-(1,7-dimethyl-1H-indol-3-yl)-2-(dimethylamino)ethyl)-1H-indole-6-sulfonamide]	57	99.5		
COc1cc2cc[nH]c2cc1S(=O)(=O)NCC(c1cn(C)c2ccccc12)N(C)C (stereo not drawn) [Compound 96, N-(2-(dimethylamino)-2-(1-methyl-1H-indol-3-yl)ethyl)-5-methoxy-1H-indole-6-sulfonamide]	60	58.8		
Cn1cc(C(CNS(=O)(=O)c2ccc3cc[nH]c3c2)N2CC[C@H](F)C2)c2ccccc21 (stereo partly drawn) [Compound 36, N-(2-((S)-3-fluoropyrrolidin-1-yl)-2-(1-methyl-1H-indol-3-yl)ethyl)-1H-indole-6-sulfonamide]	99.7	83.9		≤ 10
Cn1cc(C(CNS(=O)(=O)c2ccc3cc[nH]c3c2)N2CCCC2)c2ccccc21 (stereo not drawn) [Compound 5, N-(2-(1-methyl-1H-indol-3-yl)-2-(pyrrolidin-1-yl)ethyl)-1H-indole-6-sulfonamide]	99.6	99.8	97.9	≤ 10
Cn1cc(C(CNS(=O)(=O)c2ccc3cc[nH]c3c2)N2CCCC2)c2ncccc21 (stereo not drawn) [Compound 54, N-(2-(1-methyl-1H-pyrrolo[3,2-b]pyridin-3-yl)-2-(pyrrolidin-1-yl)ethyl)-1H-indole-6-sulfonamide]	-41	66		
CO[C@@H]1CCN([C@@H](CNS(=O)(=O)c2ccc3cc[nH]c3c2)c2cn(C)c3ccccc23)C1 [Compound 75, N-((R)-2-((R)-3-methoxypyrrolidin-1-yl)-2-(1-methyl-1H-indol-3-yl)ethyl)-1H-indole-6-sulfonamide]	-10	99.2		
CN(C)C(CNS(=O)(=O)c1ccc2cc[nH]c2c1)c1c[nH]c2ccccc12 (stereo not drawn) [Compound 22, N-(2-(dimethylamino)-2-(1H-indol-3-yl)ethyl)-1H-indole-6-sulfonamide]	57	99	95.9	
Cn1cc(C(CNS(=O)(=O)c2ccc3cc[nH]c3c2)N2C[C@H]3COC[C@H]3C2)c2ccccc21 (stereo in doubt) [Compound 31, N-(2-(1-methyl-1H-indol-3-yl)-2-(trans-tetrahydro-1H-furo[3,4-c]pyrrol-5(3H)-yl)ethyl)-1H-indole-6-sulfonamide]	23	70		
Cn1cc(C(CNS(=O)(=O)c2ccc3cc[nH]c3c2)N2CCC(C)(C)C2)c2ccccc21 (stereo not drawn) [Compound 52, N-(2-(3,3-dimethylpyrrolidin-1-yl)-2-(1-methyl-1H-indol-3-yl)ethyl)-1H-indole-6-sulfonamide]	62	96.2		
Cn1cc([C@H](CNS(=O)(=O)c2ccc3cc[nH]c3c2)N2CC[C@@H](c3ccccc3)C2)c2ccccc21 [Compound 59, N-((R)-2-(1-methyl-1H-indol-3-yl)-2-((S)-3-phenylpyrrolidin-1-yl)ethyl)-1H-indole-6-sulfonamide]	2	49.8		
C[C@@H]1CCN([C@H](CNS(=O)(=O)c2ccc3cc[nH]c3c2)c2cn(C)c3ccccc23)C1 [Compound 76, N-((S)-2-(1-methyl-1H-indol-3-yl)-2-((R)-3-methylpyrrolidin-1-yl)ethyl)-1H-indole-6-sulfonamide]	28	85.1		
Cn1cc(C(CNS(=O)(=O)c2ccc3cc[nH]c3c2)N2CCN(CCO)CC2)c2ccccc21 (stereo not drawn) [Compound 46, N-(2-(4-(2-hydroxyethyl)piperazin-1-yl)-2-(1-methyl-1H-indol-3-yl)ethyl)-1H-indole-6-sulfonamide]	-4	63.1		
Cn1cc(C(CNS(=O)(=O)c2ccc3cc[nH]c3c2)Nc2ccncc2)c2ccccc21 (stereo not drawn) [Compound 49, N-(2-(1-methyl-1H-indol-3-yl)-2-(pyridin-4-ylamino)ethyl)-1H-indole-6-sulfonamide]	47	99.2		10 to 50
Cn1nc([C@H](CNS(=O)(=O)c2ccc3cc[nH]c3c2)N2CCCC2)c2ccccc21 [Compound 90, (S)-N-(2-(1-methyl-1H-indazol-3-yl)-2-(pyrrolidin-1-yl)ethyl)-1H-indole-6-sulfonamide]	-15	65.6		
Cn1cc([C@@H](CNS(=O)(=O)c2ccc3cc[nH]c3c2)N2CCC2)c2ccccc21 [Compound 101, (S)-N-(2-(azetidin-1-yl)-2-(1-methyl-1H-indol-3-yl)ethyl)-1H-indole-6-sulfonamide]	63	97.6		
Cn1cc(C(CNS(=O)(=O)c2ccc3cc[nH]c3c2)N2CCC(O)CC2)c2ccccc21 (stereo not drawn) [Compound 40, N-(2-(4-hydroxypiperidin-1-yl)-2-(1-methyl-1H-indol-3-yl)ethyl)-1H-indole-6-sulfonamide]	16	79.7		
Cn1cc([C@H](CNS(=O)(=O)c2ccc3cc[nH]c3c2)NCc2cncs2)c2ccccc21 [Compound 85, (R)-N-(2-(1-methyl-1H-indol-3-yl)-2-((thiazol-5-ylmethyl)amino)ethyl)-1H-indole-6-sulfonamide]	37	84.4		
Cn1cc([C@@H](CNS(=O)(=O)c2ccc3cc[nH]c3c2)N2CCCC2)c2cccnc21 [Compound 66, (S)-N-(2-(1-methyl-1H-pyrrolo[2,3-b]pyridin-3-yl)-2-(pyrrolidin-1-yl)ethyl)-1H-indole-6-sulfonamide]	-10	42		
CCn1cc(C(CNS(=O)(=O)c2ccc3cc[nH]c3c2)N(C)C)c2ccccc21 (stereo not drawn) [Compound 2, N-(2-(dimethylamino)-2-(1-ethyl-1H-indol-3-yl)ethyl)-1H-indole-6-sulfonamide]	88	99.4	95	≤ 10
